Data taken from PubChem BioAssay (NCI).
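1) Cells in 96-well plates. 2) Compound, 48 h, 5 concentrations. 3) Linear interpolation between surrounding doses. 4) Unreached endpoint = highest concentration. Here, GI50 denotes the concentration required for 50% inhibition of growth. TGI: total growth inhibition.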

Assays:
Assay in all cases: NCI anticancer screen, dose series, 48 h
MDA-MB-231 breast = test system: MDA-MB-231 breast
NCI-H522 lung = test system: NCI-H522 lung
SK-MEL-28 melanoma = test system: SK-MEL-28 melanoma
CAKI-1 renal = test system: CAKI-1 renal
SK-MEL-5 melanoma = test system: SK-MEL-5 melanoma
SNB-19 CNS = test system: SNB-19 CNS
UACC-62 melanoma = test system: UACC-62 melanoma
OVCAR-5 ovarian = test system: OVCAR-5 ovarian
SW-620 colon = test system: SW-620 colon
SNB-75 CNS = test system: SNB-75 CNS
UO-31 renal = test system: UO-31 renal
A498 renal = test system: A498 renal
HOP-92 NSCLC = test system: HOP-92 NSCLC
MDA-MB-435 = test system: MDA-MB-435
M14 melanoma = test system: M14 melanoma
HCT-116 colon = test system: HCT-116 colon
MCF7 breast = test system: MCF7 breast
HCT-15 colon = test system: HCT-15 colon
PC-3 prostate = test system: PC-3 prostate
NCI-H460 lung = test system: NCI-H460 lung
K-562 leukemia = test system: K-562 leukemia
SF-295 CNS = test system: SF-295 CNS
SR leukemia = test system: SR leukemia
OVCAR-8 ovarian = test system: OVCAR-8 ovarian
LOX IMVI melanoma = test system: LOX IMVI melanoma
IGROV1 ovarian = test system: IGROV1 ovarian
UACC-257 melanoma = test system: UACC-257 melanoma
A549 NSCLC = test system: A549 NSCLC
OVCAR-3 ovarian = test system: OVCAR-3 ovarian
COLO 205 colon = test system: COLO 205 colon
T-47D breast = test system: T-47D breast
RPMI-8226 leukemia = test system: RPMI-8226 leukemia
RXF 393 renal = test system: RXF 393 renal
786-0 renal = test system: 786-0 renal
HOP-62 NSCLC = test system: HOP-62 NSCLC
SF-268 CNS = test system: SF-268 CNS
DU-145 prostate = test system: DU-145 prostate
KM12 colon = test system: KM12 colon
NCI-H226 lung = test system: NCI-H226 lung
OVCAR-4 ovarian = test system: OVCAR-4 ovarian
SF-539 CNS = test system: SF-539 CNS
MALME-3M melanoma = test system: MALME-3M melanoma
CCRF-CEM leukemia = test system: CCRF-CEM leukemia
U251 CNS = test system: U251 CNS
TK-10 renal = test system: TK-10 renal
SN12C renal = test system: SN12C renal
HL-60(TB) leukemia = test system: HL-60(TB) leukemia
NCI/ADR-RES ovarian = test system: NCI/ADR-RES ovarian
SK-MEL-2 melanoma = test system: SK-MEL-2 melanoma
ACHN renal = test system: ACHN renal
MOLT-4 leukemia = test system: MOLT-4 leukemia
HCC-2998 colon = test system: HCC-2998 colon
SK-OV-3 ovarian = test system: SK-OV-3 ovarian
HT29 colon = test system: HT29 colon
HS 578T breast = test system: HS 578T breast
NCI-H23 lung = test system: NCI-H23 lung
BT-549 breast = test system: BT-549 breast

Work on `c1ccc(CSc2nnc3c4c5c(sc4nc(-c4cccnc4)n23)CCCCCC5)cc1` yielded a GI50 (MDA-MB-231 breast) of 2.18 µM, a TGI (MDA-MB-231 breast) of 7.15 µM and a GI50 (NCI-H522 lung) of 1.39 µM. It also gave a TGI (NCI-H522 lung) of 5.07 µM, a GI50 (SK-MEL-28 melanoma) of 3.35 µM and a TGI (SK-MEL-28 melanoma) of 14.1 µM. It also gave a GI50 (CAKI-1 renal) of 3.43 µM, a TGI (CAKI-1 renal) of 15.7 µM and a GI50 (SK-MEL-5 melanoma) of 1.37 µM. The TGI (SK-MEL-5 melanoma) was 2.68 µM, the GI50 (SNB-19 CNS) was 3.96 µM and the TGI (SNB-19 CNS) was 16.2 µM. The GI50 (UACC-62 melanoma) was 1.91 µM, the TGI (UACC-62 melanoma) was 7.23 µM and the GI50 (OVCAR-5 ovarian) was 4.99 µM. It also gave a TGI (OVCAR-5 ovarian) of 17.5 µM, a GI50 (SW-620 colon) of 3.09 µM and a TGI (SW-620 colon) of 13.3 µM. For the same molecule, the GI50 (SNB-75 CNS) was 2.58 µM, the TGI (SNB-75 CNS) was 10.3 µM and the GI50 (UO-31 renal) was 3.73 µM. The TGI (UO-31 renal) was 15.1 µM, the GI50 (A498 renal) was 2.24 µM and the GI50 (HOP-92 NSCLC) was 1.7 µM. For the same molecule, the TGI (HOP-92 NSCLC) was 7.24 µM, the GI50 (MDA-MB-435) was 2.61 µM and the TGI (MDA-MB-435) was 9.88 µM. For the same molecule, the GI50 (M14 melanoma) was 3.75 µM, the TGI (M14 melanoma) was 16.9 µM and the GI50 (HCT-116 colon) was 2.77 µM. The TGI (HCT-116 colon) was 11.3 µM, the GI50 (MCF7 breast) was 2.64 µM and the TGI (MCF7 breast) was 11.2 µM. The GI50 (HCT-15 colon) was 4.51 µM, the TGI (HCT-15 colon) was 17 µM and the GI50 (PC-3 prostate) was 2.36 µM. For the same molecule, the TGI (PC-3 prostate) was 10.8 µM, the GI50 (NCI-H460 lung) was 2.97 µM and the TGI (NCI-H460 lung) was 11.1 µM. The GI50 (K-562 leukemia) was 2.34 µM, the TGI (K-562 leukemia) was 10.4 µM and the GI50 (SF-295 CNS) was 2.8 µM. The TGI (SF-295 CNS) was 11.8 µM, the GI50 (SR leukemia) was 2.59 µM and the TGI (SR leukemia) was 10.1 µM. It also gave a GI50 (OVCAR-8 ovarian) of 2.86 µM, a TGI (OVCAR-8 ovarian) of 13.2 µM and a GI50 (LOX IMVI melanoma) of 3.08 µM. The TGI (LOX IMVI melanoma) was 11.1 µM, the GI50 (IGROV1 ovarian) was 4.18 µM and the TGI (IGROV1 ovarian) was 19.2 µM. For the same molecule, the GI50 (UACC-257 melanoma) was 2.12 µM, the TGI (UACC-257 melanoma) was 8.74 µM and the GI50 (A549 NSCLC) was 2.8 µM. It also gave a TGI (A549 NSCLC) of 13.4 µM, a GI50 (OVCAR-3 ovarian) of 2.86 µM and a TGI (OVCAR-3 ovarian) of 12.4 µM. For the same molecule, the GI50 (COLO 205 colon) was 1.55 µM, the TGI (COLO 205 colon) was 3.33 µM and the GI50 (T-47D breast) was 0.495 µM. The TGI (T-47D breast) was 12.3 µM, the GI50 (RPMI-8226 leukemia) was 1.87 µM and the TGI (RPMI-8226 leukemia) was 12.5 µM. The GI50 (RXF 393 renal) was 2.79 µM, the TGI (RXF 393 renal) was 13.1 µM and the GI50 (786-0 renal) was 3.63 µM. The TGI (786-0 renal) was 14.2 µM, the GI50 (HOP-62 NSCLC) was 2.96 µM and the TGI (HOP-62 NSCLC) was 12.3 µM. The GI50 (SF-268 CNS) was 4.57 µM, the TGI (SF-268 CNS) was 17.8 µM and the GI50 (DU-145 prostate) was 3.42 µM. The TGI (DU-145 prostate) was 14.4 µM, the GI50 (KM12 colon) was 2.6 µM and the TGI (KM12 colon) was 10.5 µM. For the same molecule, the GI50 (NCI-H226 lung) was 2.03 µM, the TGI (NCI-H226 lung) was 9.96 µM and the GI50 (OVCAR-4 ovarian) was 2.08 µM. The TGI (OVCAR-4 ovarian) was 10.2 µM, the GI50 (SF-539 CNS) was 3.51 µM and the TGI (SF-539 CNS) was 12.9 µM. It also gave a GI50 (MALME-3M melanoma) of 2.76 µM, a TGI (MALME-3M melanoma) of 7.52 µM and a GI50 (CCRF-CEM leukemia) of 1.11 µM. For the same molecule, the TGI (CCRF-CEM leukemia) was 15.5 µM, the GI50 (U251 CNS) was 2.2 µM and the TGI (U251 CNS) was 12 µM. The GI50 (TK-10 renal) was 3.83 µM, the TGI (TK-10 renal) was 12.6 µM and the GI50 (SN12C renal) was 2.99 µM. It also gave a TGI (SN12C renal) of 11.8 µM, a GI50 (HL-60(TB) leukemia) of 1.84 µM and a TGI (HL-60(TB) leukemia) of 5.27 µM. For the same molecule, the GI50 (NCI/ADR-RES ovarian) was 14.1 µM, the TGI (NCI/ADR-RES ovarian) was 38.1 µM and the GI50 (SK-MEL-2 melanoma) was 2.05 µM. For the same molecule, the TGI (SK-MEL-2 melanoma) was 6.02 µM, the GI50 (ACHN renal) was 2.98 µM and the TGI (ACHN renal) was 10.5 µM. The GI50 (MOLT-4 leukemia) was 3 µM, the TGI (MOLT-4 leukemia) was 11.3 µM and the GI50 (HCC-2998 colon) was 4.21 µM. For the same molecule, the TGI (HCC-2998 colon) was 15.3 µM, the GI50 (SK-OV-3 ovarian) was 2.75 µM and the TGI (SK-OV-3 ovarian) was 9.54 µM. For the same molecule, the GI50 (HT29 colon) was 2.78 µM, the TGI (HT29 colon) was 10.9 µM and the GI50 (HS 578T breast) was 3.84 µM. It also gave a TGI (HS 578T breast) of 28.6 µM, a GI50 (NCI-H23 lung) of 2.74 µM and a TGI (NCI-H23 lung) of 8.33 µM. It also gave a GI50 (BT-549 breast) of 2.8 µM and a TGI (BT-549 breast) of 9.04 µM.
